We go through 35 molecules from patent US9018208B2, “Heterocycles as potassium channel modulators” (Icagen Inc., priority 2007, dated 2015).

The first test concerns SH-SY5Y M-currents (KCNQ2, KCNQ3 and KCNQ5). Put plainly: SH-SY5Y native cell line FLIPR assay (voltage-sensitive dye DiBAC). The format is cell-based, mouse neuroblastoma, rat glioma hybrid cell line. The conditions noted are these: FLIPR assay, SH-SY5Y native cell line; Table 1; read-out: SH-SY5Y EC50. The source says: SH-SY5Y cells, a mouse neuroblastoma, rat glioma hybrid cell line, functionally express M-currents (Robbins et al., J. Physiol. 451: 159-85 (1992). SH-SY5Y M-currents are likely comprised, at least in part, of KCNQ2, KCNQ3 and KCNQ5, since these genes are reportedly robustly expressed in differentiated SH-SY5Y cells (Selyanko et al., J. Neurosci. 19(18): 7742-56 (1999); Schroeder et al., J. Biol. Chem. 275(31): 24089-95 (2000)) and KCNQ3 dominant-negative constructs reduce M-current density in these cells (Selyanko et al., J. Neurosci. 22(5): RC212 (2002).
SH-SY5Y were maintained in DMEM (high glucose) supplemented with 10% fetal bovine serum, 0.05 mM pyridoxine, 0.1 mM hypoxanthine, 400 nM aminopterin, […], 50 μgml^−1 gentamycin and 10 mM HEPES, in an incubator at 37° C. with a humidified atmosphere of 5% CO2. Cells were plated in 96 well plates differentiated by addition of 10 μM PGE1 and 50 μM isomethylbutylxanthine to the growth media prior to study.
Differentiated SH-SY5Y cells were loaded with voltage-sensitive dye by incubation in Earls Balanced Salt Solution (EBSS) containing […] DiBAC for 1 h. Following loading, drug solution containing […] DiBAC was added to each well. Changes in fluorescence were measured every 30 s for 25 min. The maximum change in fluorescence was measured and expressed as a percentage of the maximum response obtained in the presence of a positive control agent.
`O=C(Cc1ccc(F)c(F)c1)Nc1nc2ccc(C(F)(F)F)cn2c1C1CC1` [Compound 77, N-(3-cyclopropyl-6-(trifluoromethyl)imidazo[1,2-a]pyridin-2-yl)-2-(3,4-difluorophenyl)acetamide]: the EC50 was less than 0.5 µM.

As for `Cc1ccc2nc(NC(=O)C3CCC(F)(F)CC3)c(C3CC3)n2n1` [Compound 78, N-(3-cyclopropyl-6-methylimidazo[1,2-b]pyridazin-2-yl)-4,4-difluorocyclohexanecarboxamide], the EC50 fell in the range of 0.5 to 3 µM.

As to `O=C(Cc1ccc(F)cc1F)Nc1nc2ccc(C(F)(F)F)cn2c1C1CC1` [Compound 79, N-(3-cyclopropyl-6-(trifluoromethyl)imidazo[1,2-a]pyridin-2-yl)-2-(2,4-difluorophenyl)acetamide], the EC50 fell in the range of 0.5 to 3 µM.

For the molecule `O=C(Cc1cc(F)cc(F)c1)Nc1nc2ccc(C(F)(F)F)cn2c1C1CC1` [Compound 80, N-(3-cyclopropyl-6-(trifluoromethyl)imidazo[1,2-a]pyridin-2-yl)-2-(3,5-difluorophenyl)acetamide], the EC50 was less than 0.5 µM.

In the case of `Cc1cccc2nc(NC(=O)CC(C)(C)C)c(C3CC3)n12` [Compound 81, N-(3-cyclopropyl-5-methylimidazo[1,2-a]pyridin-2-yl)-3,3-dimethylbutanamide], the EC50 lay in the range of 3 to 10 µM.

For the molecule `CC(C)(C)CC(=O)Nc1nc2ccc(C(F)(F)F)cn2c1-c1nccs1` [Compound 82, 3,3-dimethyl-N-(3-(thiazol-2-yl)-6-(trifluoromethyl)imidazo[1,2-a]pyridin-2-yl)butanamide], the EC50 lay in the range of 3 to 10 µM.

For the molecule `CC(CC(=O)Nc1nc2ccc(C(F)(F)F)cn2c1-c1nccs1)C(F)(F)F` (stereo not drawn) [Compound 83, 4,4,4-trifluoro-3-methyl-N-(3-(thiazol-2-yl)-6-(trifluoromethyl)imidazo[1,2-a]pyridin-2-yl)butanamide], the EC50 is 3 to 10 µM.

Regarding `O=C(Cc1ccc(F)cc1)Nc1nc2ccc(C(F)(F)F)cn2c1-c1nccs1` [Compound 84, 2-(4-fluorophenyl)-N-(3-(thiazol-2-yl)-6-(trifluoromethyl)imidazo[1,2-a]pyridin-2-yl)acetamide], the EC50 was less than 0.5 µM.

Regarding `O=C(Nc1nc2ccc(C(F)(F)F)cn2c1C1CC1)C1CC1(F)F` (stereo not drawn) [Compound 85, N-(3-cyclopropyl-6-(trifluoromethyl)imidazo[1,2-a]pyridin-2-yl)-2,2-difluorocyclopropanecarboxamide], the EC50 fell in the range of 0.5 to 3 µM.

On to `CC(CC(=O)Nc1nc2ccccn2c1CC(C)(C)C)C(F)(F)F` (stereo not drawn) [Compound 86, 4,4,4-trifluoro-3-methyl-N-(3-neopentylimidazo[1,2-a]pyridin-2-yl)butanamide], for which the EC50 is 0.5 to 3 µM.

In the case of `CC(C)(C)Cc1c(NC(=O)C2CCC(F)(F)CC2)nc2ccccn12` [Compound 87, 4,4-difluoro-N-(3-neopentylimidazo[1,2-a]pyridin-2-yl)cyclohexanecarboxamide], the EC50 was 0.5 to 3 µM.

With `CC(C)(C)CC(=O)Nc1nc2ccccn2c1CC(C)(C)C` [Compound 88, 3,3-dimethyl-N-(3-neopentylimidazo[1,2-a]pyridin-2-yl)butanamide], the EC50 fell in the range of 0.5 to 3 µM.

With `C[C@@H](CC(=O)Nc1nc2ccc(C(F)(F)F)cn2c1C1CC1)C(F)(F)F` [Compound 90, (S)—N-(3-cyclopropyl-6-(trifluoromethyl)imidazo[1,2-a]pyridin-2-yl)-4,4,4-trifluoro-3-methylbutanamide], the EC50 lay within 0.5 to 3 µM.

The same test, now with this note: FLIPR assay, SH-SY5Y native cell line; Table 2; read-out: SH-SY5Y EC50.
Consider `O=C(Nc1nc2ccc(F)cn2c1-c1ccccc1)C(F)(F)F` [Compound 91, 2,2,2-trifluoro-N-(6-fluoro-3-phenylimidazo[1,2-a]pyridin-2-yl)acetamide], for which the EC50 fell in the range of 3 to 10 µM.

For the molecule `O=C(Cc1ccc(F)cc1)Nc1nc2ccc(F)cn2c1-c1ccccc1` [Compound 92, N-(6-fluoro-3-phenylimidazo[1,2-a]pyridin-2-yl)-2-(4-fluorophenyl)acetamide], the EC50 lay in the range of 0.5 to 3 µM.

`CC(C)(C)CC(=O)Nc1nc2ccc(F)cn2c1-c1ccccc1` [Compound 93, N-(6-fluoro-3-phenylimidazo[1,2-a]pyridin-2-yl)-3,3-dimethylbutanamide]: the EC50 lay within 0.5 to 3 µM.

For the molecule `O=C(CC1CCCC1)Nc1nc2ccc(F)cn2c1-c1ccccc1` [Compound 94, 2-cyclopentyl-N-(6-fluoro-3-phenylimidazo[1,2-a]pyridin-2-yl)acetamide], the EC50 is less than 0.5 µM.

Consider `O=C(CC(F)(F)F)Nc1nc2ccc(F)cn2c1-c1ccccc1` [Compound 95, 3,3,3-trifluoro-N-(6-fluoro-3-phenylimidazo[1,2-a]pyridin-2-yl)propanamide], for which the EC50 fell in the range of 3 to 10 µM.

On to `O=C(Cc1ccccc1)Nc1nc2ccc(F)cn2c1-c1ccccc1` [Compound 96, N-(6-fluoro-3-phenylimidazo[1,2-a]pyridin-2-yl)-2-phenylacetamide], for which the EC50 lay in the range of 0.5 to 3 µM.

In the case of `O=C(CCC(F)(F)F)Nc1nc2ccc(F)cn2c1-c1ccccc1` [Compound 97, 4,4,4-trifluoro-N-(6-fluoro-3-phenylimidazo[1,2-a]pyridin-2-yl)butanamide], the EC50 was 0.5 to 3 µM.

On to `O=C(CC1CCCC1)Nc1nc2cc(C(F)(F)F)ccn2c1-c1ccccc1` [Compound 98, 2-cyclopentyl-N-(3-phenyl-7-(trifluoromethyl)imidazo[1,2-a]pyridin-2-yl)acetamide], for which the EC50 lay in the range of 0.5 to 3 µM.

Turning to `O=C(Cc1ccc(F)cc1)Nc1nc2cc(C(F)(F)F)ccn2c1-c1ccccc1` [Compound 99, 2-(4-fluorophenyl)-N-(3-phenyl-7-(trifluoromethyl)imidazo[1,2-a]pyridin-2-yl)acetamide], the EC50 is less than 0.5 µM.

Regarding `CC(C)(C)CC(=O)Nc1nc2cc(C(F)(F)F)ccn2c1-c1ccccc1` [Compound 100, 3,3-dimethyl-N-(3-phenyl-7-(trifluoromethyl)imidazo[1,2-a]pyridin-2-yl)butanamide], the EC50 fell in the range of 0.5 to 3 µM.

Turning to `O=C(Cc1ccccc1)Nc1nc2cc(C(F)(F)F)ccn2c1-c1ccccc1` [Compound 101, 2-phenyl-N-(3-phenyl-7-(trifluoromethyl)imidazo[1,2-a]pyridin-2-yl)acetamide], the EC50 was 0.5 to 3 µM.

As for `O=C(Cc1ccc(F)cc1)Nc1nc2ccc(F)cn2c1-c1ccc(F)cc1` [Compound 102, N-(6-fluoro-3-(4-fluorophenyl)imidazo[1,2-a]pyridin-2-yl)-2-(4-fluorophenyl)acetamide], the EC50 was less than 0.5 µM.

In the case of `CC(C)(C)CC(=O)Nc1nc2ccc(F)cn2c1-c1ccc(F)cc1` [Compound 103, N-(6-fluoro-3-(4-fluorophenyl)imidazo[1,2-a]pyridin-2-yl)-3,3-dimethylbutanamide], the EC50 was less than 0.5 µM.

As for `O=C(CC(F)(F)F)Nc1nc2cc(C(F)(F)F)ccn2c1-c1ccccc1` [Compound 104, 3,3,3-trifluoro-N-(3-phenyl-7-(trifluoromethyl)imidazo[1,2-a]pyridin-2-yl)propanamide], the EC50 fell in the range of 3 to 10 µM.

Consider `O=C(CCC(F)(F)F)Nc1nc2cc(C(F)(F)F)ccn2c1-c1ccccc1` [Compound 105, 4,4,4-trifluoro-N-(3-phenyl-7-(trifluoromethyl)imidazo[1,2-a]pyridin-2-yl)butanamide], for which the EC50 fell in the range of 3 to 10 µM.

In the case of `O=C(Cc1ccccc1)Nc1nc2ccc(F)cn2c1-c1ccc(F)cc1` [Compound 106, N-(6-fluoro-3-(4-fluorophenyl)imidazo[1,2-a]pyridin-2-yl)-2-phenylacetamide], the EC50 was 0.5 to 3 µM.

In the case of `O=C(CC1CCCC1)Nc1nc2ccc(F)cn2c1-c1ccc(F)cc1` [Compound 107, 2-cyclopentyl-N-(6-fluoro-3-(4-fluorophenyl)imidazo[1,2-a]pyridin-2-yl)acetamide], the EC50 is less than 0.5 µM.

Regarding `O=C(CCC(F)(F)F)Nc1nc2ccc(F)cn2c1-c1ccc(F)cc1` [Compound 108, 4,4,4-trifluoro-N-(6-fluoro-3-(4-fluorophenyl)imidazo[1,2-a]pyridin-2-yl)butanamide], the EC50 was 0.5 to 3 µM.

Turning to `CC(C(=O)Nc1nc2ccc(F)cn2c1-c1ccc(F)cc1)c1ccccc1` (stereo not drawn) [Compound 109, N-(6-fluoro-3-(4-fluorophenyl)imidazo[1,2-a]pyridin-2-yl)-2-phenylpropanamide], the EC50 was in the range of 0.5 to 3 µM.

With `CC(C(=O)Nc1nc2cc(C(F)(F)F)ccn2c1-c1ccccc1)c1ccccc1` (stereo not drawn) [Compound 110, 2-phenyl-N-(3-phenyl-7-(trifluoromethyl)imidazo[1,2-a]pyridin-2-yl)propanamide], the EC50 lay within 0.5 to 3 µM.

`O=C(Cc1ccc(F)cc1)Nc1nc2cc(C(F)(F)F)ccn2c1-c1ccc(F)cc1` [Compound 111, 2-(4-fluorophenyl)-N-(3-(4-fluorophenyl)-7-(trifluoromethyl)imidazo[1,2-a]pyridin-2-yl)acetamide]: the EC50 lay within 0.5 to 3 µM.

As for `O=C(Cc1ccccc1)Nc1nc2cc(C(F)(F)F)ccn2c1-c1ccc(F)cc1` [Compound 112, N-(3-(4-fluorophenyl)-7-(trifluoromethyl)imidazo[1,2-a]pyridin-2-yl)-2-phenylacetamide], the EC50 is 0.5 to 3 µM.

Still in this test, the particulars now being: read-out: SH-SY5Y_EC50.
Turning to `O=C(Cc1ccc(F)cc1)Nc1nc2ccc(F)cn2c1-c1ccccc1` [Compound 92, N-(6-fluoro-3-phenylimidazo[1,2-a]pyridin-2-yl)-2-(4-fluorophenyl)acetamide], the EC50 was found to be 0.732 µM.
